From patent publication US11684675B2, “Dimeric collagen hybridizing peptides and methods of using” (University of Utah Research Foundation, priority 2015, dated 2023)

How the values were obtained:
porcine gelatin = assay: SPR gelatin capture by immobilized biotinylated CHPs; format: binding; details: gelatin 25 μg/mL
Procedure: FIGS. 7A and 7B show SPR data for porcine gelatin capture by immobilized CHPs. […] Gelatin was applied to the sensor surface during the association phase, followed by elution with blank during dissociation phase. Association occurred for 981 s, followed by dissociation for 1800 s. Values were normalized to a 100% biotin lane, and were adjusted to the mass of peptide immobilized in each well. (A) Preheated (80° C., 10 min), quenched (0° C., 30 s) gelatin (25 μg/mL) was applied to the sensor at an ambient temperature of 37° C. (B) Preheated (80° C., 10 min), quenched (0° C., 30 s) gelatin (25 μg/mL) was applied to the sensor at an ambient temperature of 15° C.
Surface Plasmon Resonance (SPR). […] However, there were major differences observed during the association phase. At 37° C., there was a much higher amount of gelatin adsorbed to all the peptides tested on the surface when compared to 15° C. […] At 15° C., gelatin adsorbed to the surface at a much slower rate. […] However, this lower adsorption rate can be due to a reduced diffusion rate near the surface or a more condensed gelatin structure at this lower temperature.
Dimeric CHP is able to hybridize effectively with denatured collagens with faster folding kinetics than current, monomeric CHPs. Surface plasmon resonance (SPR) was used to measure the ability of the CHPs to trap denatured collagen from solution.

[1] = CD refolding (triple helix assembly) at 10° C. monitored at 225 nm; format: physicochemical
Procedure: Conversion was assumed to be at 100% after 96 h incubation at 4° C., and max trimer concentration was measured via CD ellipticity at 10° C. Samples were preheated to 80° C. in the sample cuvette for 10 min before being transferred directly to the sample holder held at a constant 10° C. Sample measurement began immediately. Initial time point for analysis was determined by measuring time for a blank (lx PBS) to thermally equilibrate in these conditions.
For all peptides, conversion was assumed to be at 100% after 96 h incubation at 4° C., and max trimer concentration was measured via CD ellipticity at 10° C. Samples were preheated to 80° C. in the sample cuvette for 10 min before being transferred directly to the sample holder held at a constant 10° C. Sample measurement began immediately. Initial time point for analysis was determined by measuring time for a blank (1×PBS) to thermally equilibrate in these conditions. This was set as the zero point for all peptides, as the large jump in CD due to temperature makes the initial jump irresolvable. (A) Rate of assembly of CHP 9 (60, 30, and 15 μM), over 2 h, monitored at 225 nm. (B) Rate of assembly of CHP 9d (30, 15, and 7.5 μM, corresponding to same CHP strand concentration from panel A), over 2 h, monitored at 225 nm. (C) Rate of assembly of CHP 6 (150 and 75 μM), over 2 h, monitored at 225 nm.
FIGS. 12A and 12B show CD refolding at 10° C. of CMPs monitored at 225 nm. CMPs were heated to 80° C. for 5 minutes before being placed into the CD and initial 2 min of monitored data was removed to eliminate thermal transition. Signal was normalized to that of a fully folded peptide.
Circular Dichroism: Circular Dichroism (CD) was measured for all peptides at 225 nm. Melting curves were taken on peptides between 10 and 80° C. at a heating rate of 0.5° C./min, with pauses at each 1° C. Refolding experiments were performed after peptide solutions were incubated at 4° C. for at least 12 hours. Concentrations were normalized to strand concentration.

[2] = system: crosslinked gelatin films; assay: Retention of CF-labelled CHPs in crosslinked gelatin films (bound at 4° C., washed at 25° C./r.t.); format: binding, porcine; details: Example 2, washes at 4° C. then 25° C.
Procedure: (A) Fraction of peptide remaining in a crosslinked gelatin film after 17 h at 25° C. (10 total washes). Values are normalized to fluorescence remaining in wells after 6 washes at 4° C. (>95% removal of CHPs 9r, 6r, and 5r). All washes performed in 1×PBS. (B) CHPs (15 μM) premixed into 10% porcine gelatin and preheated to 80° C. (10 min) before being added to a 96 well plate. Excess CHP-gelatin mixture was removed, then the premix was incubated at 4° C. for 2 hours. Wells were washed at 4° C., 5 times (>95% removal of CHPs 9r, 6r, and 5r). Wells were then washed for 2 hours (6 washes total) at 25° C. to monitor CHP remaining in the well. (C) Fluorescence of CHPs remaining in crosslinked gelatin after incubation at 37° C. overnight without preheating, followed by washing with 1×PBS at 37° C. (20 h). (D) Fluorescence of CHPs remaining in crosslinked gelatin after incubation at 37° C. overnight (80° C. preheating, 10 min), followed by washing with 1×PBS at 37° C. (20 h).
Binding to Gelatin films. Peptide solutions (20 μM in PBS) were preheated to 80° C. for 10 minutes before being added directly to the crosslinked gelatin films. Peptides were allowed to fully equilibrate with the gel at 4° C. overnight before being exposed to repeated washes (4×30 min) at 4° to fully remove any non-specifically bound peptide. Gelatin wells were then washed at r.t. with PBS (5×1 h, lx 12 h) to measure retention within the gelatin films. […] To eliminate the possibility of these peptides merely becoming physically entrapped within the gelatin after forming triple helix or forming triple helix before binding, binding affinity was verified by producing a premix of the CHPs and Gelatin to eliminated diffusion-limited binding before washing the wells in a similar manner.
Fluorescence Binding: CHP binding to gelatin was monitored by conjugating a fluorescent Carboxyfluorescein (CF) molecule to the N-terminus of each peptide via standard SPPS. Solutions of the fluorescent peptides were heated to 80° C. for 5 min before injecting 50 μL onto a pre-prepared EDC-crosslinked thin gelatin film in a 96 well plate. Peptides incubated overnight at 4° C., then washed with repeated rounds of 4° C. 1×PBS followed by 25° C. 1×PBS.

[(GPO)6G3)2KG [6d]
ability to bind gelatin (porcine gelatin; 15° C.): only able to bind gelatin at a rate comparable to the monomeric CHPs | ability to bind gelatin (porcine gelatin; 37° C.): higher ability to bind gelatin than that of an equivalent number of strands in their monomeric counterparts | refolding after two hours of incubation ([1]; 10° C., same strand concentration): almost completely refolded in two hours | time at which half refolded ([1]; CD refolding, 37.5 μM): 10 min | binding affinity to gelatin compared to monomeric form [2]: clear increase in binding affinity
